Experimental data taken from PMC5693616 (Bioorganic & medicinal chemistry letters, 2017).
Where two headings read alike, the source gives them in different places.

Legend:
EPAC2 [1] = conditions: read-out: EPAC2 inhibitory activity IC50; cited from earlier work
EPAC1 [2] = biological target: T1, EPAC1 (Homo sapiens, UniProt O95398); conditions: at 100 μM; cited from earlier work
T1 sequence (O95398 1-923): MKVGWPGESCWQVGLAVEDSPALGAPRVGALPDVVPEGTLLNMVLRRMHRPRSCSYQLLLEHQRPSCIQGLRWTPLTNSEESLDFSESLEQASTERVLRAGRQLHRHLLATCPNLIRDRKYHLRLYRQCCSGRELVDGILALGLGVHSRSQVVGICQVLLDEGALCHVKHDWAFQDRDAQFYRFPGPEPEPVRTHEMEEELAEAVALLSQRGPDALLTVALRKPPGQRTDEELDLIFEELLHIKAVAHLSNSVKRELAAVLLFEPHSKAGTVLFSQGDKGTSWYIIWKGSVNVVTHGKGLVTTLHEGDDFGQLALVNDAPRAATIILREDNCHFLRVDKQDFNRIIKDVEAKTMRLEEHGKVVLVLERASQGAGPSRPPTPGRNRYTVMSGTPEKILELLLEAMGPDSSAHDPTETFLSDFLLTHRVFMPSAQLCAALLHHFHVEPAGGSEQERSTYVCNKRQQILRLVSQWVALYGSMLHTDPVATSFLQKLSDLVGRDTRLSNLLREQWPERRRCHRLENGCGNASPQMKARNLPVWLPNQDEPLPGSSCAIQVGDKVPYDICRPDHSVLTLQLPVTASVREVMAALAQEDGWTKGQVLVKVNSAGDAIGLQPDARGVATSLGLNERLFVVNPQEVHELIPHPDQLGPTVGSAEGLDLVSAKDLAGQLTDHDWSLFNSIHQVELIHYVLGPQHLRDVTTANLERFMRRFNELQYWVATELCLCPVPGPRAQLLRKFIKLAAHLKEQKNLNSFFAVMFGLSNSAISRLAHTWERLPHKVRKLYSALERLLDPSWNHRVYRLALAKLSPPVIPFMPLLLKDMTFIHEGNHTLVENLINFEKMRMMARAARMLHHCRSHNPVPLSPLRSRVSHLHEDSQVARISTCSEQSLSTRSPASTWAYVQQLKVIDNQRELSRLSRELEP

EPAC2 [3] = conditions: read-out: inhibition of cAMP-mediated EPAC2 GEF activity IC50; cited from earlier work
EPAC1 [4] = biological target: T1, EPAC1; format: biochemical; conditions: for EPAC inhibitory activities (in words): Rap1b-bGDP exchange assay

In the case of Cc1cc(C)c(Nc2ccc(Cl)c(C(F)(F)F)c2)c(C)c1 [Compound 3], the IC50 (EPAC2 [1]) is listed as 400 nM, the “inhibition against EPAC1” value (EPAC1 [2]) is listed as “no significant inhibition” and the IC50 (EPAC2 [3]) is listed as 1000 nM.

In the case of CC(C)(C)c1ccc(C(=O)/C(C#N)=N/Nc2cc(Cl)cc(Cl)c2)cc1 [Compound 10, (E)-2-(4-(tert-Butyl)phenyl)-N-(3,5-dichlorophenyl)-2-oxoacetohydrazonoyl cyanide], the “improvement on EPAC1 inhibitory activity compared to compound 6” value (EPAC1 [4]; ratio of IC50 values vs compound 6) is reported as 2.5 fold.

For N#C/C(=N\Nc1cc(Cl)cc(Cl)c1)C(=O)c1ccc(-c2ccccc2)cc1 [Compound 26], the “EPAC inhibitory activities (in words)” value (EPAC1 [4]) was “complete loss of EPAC inhibitory activities”.

For COc1ccc(C(=O)/C(C#N)=N/Nc2cc(Cl)cc(Cl)c2)cc1OC [Compound 27], the “EPAC inhibitory activities (in words)” value (EPAC1 [4]) was “complete loss of EPAC inhibitory activities”.
